Experimental data: ChEMBL document CHEMBL1129561 (J Med Chem, 1996)

How the values were obtained:
Androgen receptor [1] = target: T1, Androgen receptor (Homo sapiens, UniProt P10275)
T1 sequence (P10275 whole entry): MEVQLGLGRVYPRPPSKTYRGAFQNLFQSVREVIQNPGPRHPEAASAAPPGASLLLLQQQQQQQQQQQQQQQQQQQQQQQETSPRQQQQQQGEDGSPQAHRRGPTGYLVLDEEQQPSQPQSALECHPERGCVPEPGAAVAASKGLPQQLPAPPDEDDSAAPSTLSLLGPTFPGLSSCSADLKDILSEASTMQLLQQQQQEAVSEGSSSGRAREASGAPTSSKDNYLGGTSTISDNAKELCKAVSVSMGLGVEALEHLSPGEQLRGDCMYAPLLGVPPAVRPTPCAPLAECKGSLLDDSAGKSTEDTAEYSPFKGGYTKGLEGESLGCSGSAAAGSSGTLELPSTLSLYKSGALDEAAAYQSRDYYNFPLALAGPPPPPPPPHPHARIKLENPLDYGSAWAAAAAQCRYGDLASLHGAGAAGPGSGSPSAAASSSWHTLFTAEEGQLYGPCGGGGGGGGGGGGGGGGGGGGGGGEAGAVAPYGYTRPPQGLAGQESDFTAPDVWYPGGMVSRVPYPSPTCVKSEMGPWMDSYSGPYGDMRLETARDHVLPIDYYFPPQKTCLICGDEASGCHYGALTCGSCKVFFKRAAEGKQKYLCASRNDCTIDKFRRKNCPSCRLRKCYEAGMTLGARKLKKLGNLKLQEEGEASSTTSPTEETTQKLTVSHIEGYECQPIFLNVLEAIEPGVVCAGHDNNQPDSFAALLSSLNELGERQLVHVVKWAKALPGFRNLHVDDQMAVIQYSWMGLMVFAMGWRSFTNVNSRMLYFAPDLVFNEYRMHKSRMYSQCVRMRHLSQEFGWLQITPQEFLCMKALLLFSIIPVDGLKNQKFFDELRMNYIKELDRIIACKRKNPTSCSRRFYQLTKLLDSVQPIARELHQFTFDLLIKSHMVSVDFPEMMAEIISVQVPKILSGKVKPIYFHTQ
Description: Inhibitory activity against human Androgen receptor

Androgen receptor [2] = target: T1, Androgen receptor; remark: listed apart in the source
Description: Binding affinity for human Androgen receptor

Glucocorticoid receptor [3] = target: T2, Glucocorticoid receptor (Homo sapiens, UniProt P04150)
T2 sequence (P04150 whole entry): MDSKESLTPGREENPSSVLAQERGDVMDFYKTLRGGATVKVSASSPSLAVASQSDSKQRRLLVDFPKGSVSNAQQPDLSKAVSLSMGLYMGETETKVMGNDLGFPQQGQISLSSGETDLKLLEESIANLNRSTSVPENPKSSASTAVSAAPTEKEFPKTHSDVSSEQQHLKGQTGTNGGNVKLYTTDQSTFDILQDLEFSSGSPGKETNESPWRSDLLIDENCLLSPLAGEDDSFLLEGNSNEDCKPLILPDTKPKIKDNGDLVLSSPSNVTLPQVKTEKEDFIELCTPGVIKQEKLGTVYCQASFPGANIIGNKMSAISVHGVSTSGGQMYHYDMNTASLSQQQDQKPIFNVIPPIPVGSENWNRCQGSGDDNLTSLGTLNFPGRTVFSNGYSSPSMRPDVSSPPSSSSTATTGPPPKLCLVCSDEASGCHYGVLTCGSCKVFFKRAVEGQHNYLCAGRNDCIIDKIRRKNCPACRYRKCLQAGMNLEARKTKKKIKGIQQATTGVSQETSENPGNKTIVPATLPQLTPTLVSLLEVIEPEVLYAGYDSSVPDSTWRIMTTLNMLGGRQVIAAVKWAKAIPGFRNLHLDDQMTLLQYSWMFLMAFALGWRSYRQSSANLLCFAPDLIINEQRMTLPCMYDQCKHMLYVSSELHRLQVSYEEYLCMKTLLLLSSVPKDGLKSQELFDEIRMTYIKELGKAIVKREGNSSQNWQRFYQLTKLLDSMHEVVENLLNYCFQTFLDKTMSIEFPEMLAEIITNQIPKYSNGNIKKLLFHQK
Description: Binding affinity was determined for human glucocorticoid receptor(hGR).

Glucocorticoid receptor [4] = target: T2, Glucocorticoid receptor; remark: listed apart in the source
[5] = target: T3, Mineralocorticoid receptor (Homo sapiens, UniProt P08235)
T3 sequence (P08235 whole entry): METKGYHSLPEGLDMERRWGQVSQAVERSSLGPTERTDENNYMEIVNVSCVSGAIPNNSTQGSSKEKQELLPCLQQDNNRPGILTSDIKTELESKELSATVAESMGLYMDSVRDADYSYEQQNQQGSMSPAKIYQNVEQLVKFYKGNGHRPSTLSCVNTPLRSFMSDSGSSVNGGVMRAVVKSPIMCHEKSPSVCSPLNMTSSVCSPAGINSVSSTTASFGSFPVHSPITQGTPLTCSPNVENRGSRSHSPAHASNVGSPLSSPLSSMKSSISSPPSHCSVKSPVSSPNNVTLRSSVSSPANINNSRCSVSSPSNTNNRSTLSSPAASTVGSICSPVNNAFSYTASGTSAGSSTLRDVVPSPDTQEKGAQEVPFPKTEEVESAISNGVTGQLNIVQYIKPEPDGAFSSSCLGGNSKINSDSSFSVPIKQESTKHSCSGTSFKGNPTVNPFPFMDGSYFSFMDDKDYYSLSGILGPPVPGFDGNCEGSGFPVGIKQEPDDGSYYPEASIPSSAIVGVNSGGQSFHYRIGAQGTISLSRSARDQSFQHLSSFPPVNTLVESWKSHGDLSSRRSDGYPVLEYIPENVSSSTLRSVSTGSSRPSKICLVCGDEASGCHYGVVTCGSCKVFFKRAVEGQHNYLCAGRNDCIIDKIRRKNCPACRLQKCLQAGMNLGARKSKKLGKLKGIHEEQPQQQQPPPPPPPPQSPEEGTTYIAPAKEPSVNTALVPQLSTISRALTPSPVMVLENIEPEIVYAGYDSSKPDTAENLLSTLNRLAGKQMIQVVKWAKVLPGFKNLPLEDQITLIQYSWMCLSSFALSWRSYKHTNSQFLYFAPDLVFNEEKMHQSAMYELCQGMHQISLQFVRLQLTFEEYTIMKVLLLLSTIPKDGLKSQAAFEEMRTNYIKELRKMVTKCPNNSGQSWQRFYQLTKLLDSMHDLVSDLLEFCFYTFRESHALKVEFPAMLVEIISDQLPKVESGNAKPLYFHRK

Estrogen receptor [6] = target: T4, Estrogen receptor (Homo sapiens, UniProt Q92731+P03372)
Description: Inhibitory activity against human estrogen receptor

Estrogen receptor [7] = target: T4, Estrogen receptor; remark: listed apart in the source
Description: Binding affinity for human estrogen receptor

[8] = target: T5, Progesterone receptor (Homo sapiens) (UniProt P06401); conditions: CV-1
T5 sequence (whole entry): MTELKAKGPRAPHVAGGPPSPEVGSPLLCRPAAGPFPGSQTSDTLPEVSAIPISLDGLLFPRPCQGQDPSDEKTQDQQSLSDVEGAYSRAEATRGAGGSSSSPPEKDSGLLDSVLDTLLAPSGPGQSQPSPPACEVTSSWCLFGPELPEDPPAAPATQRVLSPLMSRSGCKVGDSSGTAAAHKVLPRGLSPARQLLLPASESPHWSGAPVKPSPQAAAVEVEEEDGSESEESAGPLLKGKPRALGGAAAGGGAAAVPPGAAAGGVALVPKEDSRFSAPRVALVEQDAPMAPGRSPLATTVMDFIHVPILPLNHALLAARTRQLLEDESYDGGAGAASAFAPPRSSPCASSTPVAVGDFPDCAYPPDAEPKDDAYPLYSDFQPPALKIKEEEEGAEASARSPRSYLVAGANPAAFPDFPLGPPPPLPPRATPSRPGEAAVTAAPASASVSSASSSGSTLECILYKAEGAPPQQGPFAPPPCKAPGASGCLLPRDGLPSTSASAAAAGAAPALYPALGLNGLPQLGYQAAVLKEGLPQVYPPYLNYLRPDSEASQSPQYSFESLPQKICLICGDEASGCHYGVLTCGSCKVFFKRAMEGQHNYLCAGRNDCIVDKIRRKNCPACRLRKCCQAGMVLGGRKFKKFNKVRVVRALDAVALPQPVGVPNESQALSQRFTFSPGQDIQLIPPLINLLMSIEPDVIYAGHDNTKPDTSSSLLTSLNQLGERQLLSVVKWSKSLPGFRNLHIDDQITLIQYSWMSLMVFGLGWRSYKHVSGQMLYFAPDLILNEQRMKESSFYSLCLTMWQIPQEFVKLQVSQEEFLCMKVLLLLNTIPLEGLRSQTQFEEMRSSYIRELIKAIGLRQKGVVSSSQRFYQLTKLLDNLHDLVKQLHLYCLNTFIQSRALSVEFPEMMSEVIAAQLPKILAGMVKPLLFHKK

Glucocorticoid receptor [9] = target: T2, Glucocorticoid receptor; assay: Inhibitory activity against human glucocorticoid receptor (hGR)
[10] = target: T3, Mineralocorticoid receptor; assay: Inhibitory activity against human mineralocorticoid receptor (hMR)
Progesterone receptor [11] = target: T6, Progesterone receptor (Homo sapiens, UniProt P06401)
T6 sequence (P06401 whole entry): T5 sequence (whole entry)

Progesterone receptor [12] = target: T6, Progesterone receptor; remark: listed apart in the source
Progesterone receptor [13] = target: T6, Progesterone receptor; remark: listed apart in the source
[14] = target: T5, Progesterone receptor (Homo sapiens); conditions: CV-1; remark: listed apart in the source
Progesterone receptor [15] = target: T6, Progesterone receptor; assay: Effective concentration against human Progesterone receptor B isoform expressed in CV-1 cells; type: cell-based
Androgen receptor [16] = target: T1, Androgen receptor; remark: listed apart in the source
Description: Binding affinity determined against human Androgen receptor

Glucocorticoid receptor [17] = target: T2, Glucocorticoid receptor; assay: Binding affinity against human glucocorticoid receptor(hGR).

Ki (Glucocorticoid receptor [3]) [nM]	IC50 [10] [nM]	IC50 (Progesterone receptor [11]) [nM]	Ki (Progesterone receptor [13]) [nM]	Max inhibition [14] [%]	EC50 (Progesterone receptor [15]) [nM]	Ki (Androgen receptor [16]) [nM]	SMILES	IC50 (Androgen receptor [1]) [nM]	Ki (Androgen receptor [2]) [nM]	IC50 (Glucocorticoid receptor [4]) [nM]	IC50 [5] [nM]	IC50 (Estrogen receptor [6]) [nM]	Ki (Estrogen receptor [7]) [nM]	Max inhibition [8] [%]	IC50 (Glucocorticoid receptor [9]) [nM]	IC50 (Progesterone receptor [12]) [nM]	Ki (Glucocorticoid receptor [17]) [nM]
1770	1500	210	218	94	–	–	C=C1CCCC(C)(C)[C@H]1Cc1cc(OC)c(Br)cc1O	–	–	–	–	> 10000	> 10000	–	> 10000	741	–
4420	–	1600	84	61	3300	2320	C=C1C=C(C)CC(C)(C)C1C/C=C/c1cc(OC)c(Br)cc1O (stereo unspecified)	–	–	–	–	–	–	–	–	–	–

SMILES	Ki (Glucocorticoid receptor [3]) [nM]	IC50 [10] [nM]	IC50 (Progesterone receptor [11]) [nM]	Ki (Progesterone receptor [13]) [nM]	Max inhibition [14] [%]	EC50 (Progesterone receptor [15]) [nM]	Ki (Androgen receptor [16]) [nM]	IC50 (Androgen receptor [1]) [nM]	Ki (Androgen receptor [2]) [nM]	IC50 (Glucocorticoid receptor [4]) [nM]	IC50 [5] [nM]	IC50 (Estrogen receptor [6]) [nM]	Ki (Estrogen receptor [7]) [nM]	Max inhibition [8] [%]	IC50 (Glucocorticoid receptor [9]) [nM]	IC50 (Progesterone receptor [12]) [nM]	Ki (Glucocorticoid receptor [17]) [nM]
CN(C)c1ccc([C@H]2CC3(C)[C@@H](CC[C@]3(O)CCCO)[C@@H]3CCC4=CC(=O)CCC4=C32)cc1 (single isomer, unassigned) [ONAPRISTONE]	41.8	–	–	–	–	–	–	269	> 100	27	> 1000	> 1000	< 20	99	–	–	–
C=C1CC[C@@H](Br)C(C)(C)[C@H]1Cc1cc(OC)c(Br)cc1O	–	–	354	490	83	–	–	449	–	–	–	> 10000	–	–	> 10000	549	3210
